From PubChem BioAssay (NCI)
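Protocol summary: plate cells (96-well), add compound at 5 concentrations, incubate 48 h, interpolate endpoints linearly. Abbreviation: GI50, concentration required for 50% inhibition of growth. TGI denotes the concentration required for complete inhibition of growth.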 Where a SMILES comes first, the peptide text is derived from it. [ ]: non-standard residue; d: D form. Phe(ol) = N[C@H](CO)Cc1ccccc1; dIva = CC[C@@](C)(N)C(=O)O; Aib = CC(C)(N)C(=O)O

Legend:
Assay in all cases: NCI anticancer screen, dose series, 48 h
T-47D breast = tested on: T-47D breast
HOP-92 NSCLC = tested on: HOP-92 NSCLC
UO-31 renal = tested on: UO-31 renal
K-562 leukemia = tested on: K-562 leukemia
EKVX NSCLC = tested on: EKVX NSCLC
NCI/ADR-RES ovarian = tested on: NCI/ADR-RES ovarian
OVCAR-8 ovarian = tested on: OVCAR-8 ovarian
SK-MEL-28 melanoma = tested on: SK-MEL-28 melanoma
SK-MEL-5 melanoma = tested on: SK-MEL-5 melanoma
CCRF-CEM leukemia = tested on: CCRF-CEM leukemia
UACC-62 melanoma = tested on: UACC-62 melanoma
MALME-3M melanoma = tested on: MALME-3M melanoma
LOX IMVI melanoma = tested on: LOX IMVI melanoma
786-0 renal = tested on: 786-0 renal
MCF7 breast = tested on: MCF7 breast
SF-539 CNS = tested on: SF-539 CNS
ACHN renal = tested on: ACHN renal
UACC-257 melanoma = tested on: UACC-257 melanoma
OVCAR-4 ovarian = tested on: OVCAR-4 ovarian
A549 NSCLC = tested on: A549 NSCLC
NCI-H460 lung = tested on: NCI-H460 lung
KM12 colon = tested on: KM12 colon
NCI-H23 lung = tested on: NCI-H23 lung
RPMI-8226 leukemia = tested on: RPMI-8226 leukemia
TK-10 renal = tested on: TK-10 renal
OVCAR-3 ovarian = tested on: OVCAR-3 ovarian
HL-60(TB) leukemia = tested on: HL-60(TB) leukemia
RXF 393 renal = tested on: RXF 393 renal
SW-620 colon = tested on: SW-620 colon
HOP-62 NSCLC = tested on: HOP-62 NSCLC
SF-268 CNS = tested on: SF-268 CNS
SNB-19 CNS = tested on: SNB-19 CNS
HCC-2998 colon = tested on: HCC-2998 colon
NCI-H522 lung = tested on: NCI-H522 lung
COLO 205 colon = tested on: COLO 205 colon
MDA-MB-435 = tested on: MDA-MB-435
M14 melanoma = tested on: M14 melanoma
HCT-116 colon = tested on: HCT-116 colon
SN12C renal = tested on: SN12C renal
MOLT-4 leukemia = tested on: MOLT-4 leukemia
HS 578T breast = tested on: HS 578T breast
SF-295 CNS = tested on: SF-295 CNS
PC-3 prostate = tested on: PC-3 prostate
IGROV1 ovarian = tested on: IGROV1 ovarian
MDA-MB-231 breast = tested on: MDA-MB-231 breast
HT29 colon = tested on: HT29 colon
U251 CNS = tested on: U251 CNS
HCT-15 colon = tested on: HCT-15 colon
SK-OV-3 ovarian = tested on: SK-OV-3 ovarian
OVCAR-5 ovarian = tested on: OVCAR-5 ovarian
SR leukemia = tested on: SR leukemia
SK-MEL-2 melanoma = tested on: SK-MEL-2 melanoma
NCI-H226 lung = tested on: NCI-H226 lung
BT-549 breast = tested on: BT-549 breast
SNB-75 CNS = tested on: SNB-75 CNS
A498 renal = tested on: A498 renal

CC[C@@](C)(NC(=O)C(C)(C)NC(=O)[C@@H](NC(=O)[C@@H]1CCCN1C(=O)C(C)(C)NC(=O)[C@H](CC(C)C)NC(=O)CNC(=O)C(C)(C)NC(=O)[C@@H](NC(=O)C(C)(C)NC(=O)[C@H](CCC(N)=O)NC(=O)[C@H](C)NC(=O)C(C)(C)NC(=O)[C@H](C)NC(=O)C(C)(C)NC(=O)[C@@H]1CCCN1C(=O)C(C)(C)NC(C)=O)C(C)C)C(C)C)C(=O)N[C@@H](CCC(N)=O)C(=O)N[C@@H](CCC(N)=O)C(=O)N[C@H](CO)Cc1ccccc1 (Ac-[Aib]P[Aib]A[Aib]AQ[Aib]V[Aib]GL[Aib]PV[Aib][dIva]QQ[Phe(ol)])
GI50 (T-47D breast): 974 nM
TGI (T-47D breast): 4.02 µM
GI50 (HOP-92 NSCLC): 1060 nM
TGI (HOP-92 NSCLC): 2950 nM
GI50 (UO-31 renal): > 4.25 µM
TGI (UO-31 renal): > 4.25 µM
GI50 (K-562 leukemia): 2400 nM
TGI (K-562 leukemia): > 4.25 µM
GI50 (EKVX NSCLC): > 4.25 µM
TGI (EKVX NSCLC): > 4.25 µM
GI50 (NCI/ADR-RES ovarian): > 4.25 µM
TGI (NCI/ADR-RES ovarian): > 4.25 µM
GI50 (OVCAR-8 ovarian): > 4.25 µM
TGI (OVCAR-8 ovarian): > 4.25 µM
GI50 (SK-MEL-28 melanoma): 1660 nM
TGI (SK-MEL-28 melanoma): > 4.25 µM
GI50 (SK-MEL-5 melanoma): 1170 nM
TGI (SK-MEL-5 melanoma): 3.62 µM
GI50 (CCRF-CEM leukemia): 2930 nM
TGI (CCRF-CEM leukemia): > 4.25 µM
GI50 (UACC-62 melanoma): 1730 nM
TGI (UACC-62 melanoma): > 4.25 µM
GI50 (MALME-3M melanoma): 856 nM
TGI (MALME-3M melanoma): 2140 nM
GI50 (LOX IMVI melanoma): 1360 nM
TGI (LOX IMVI melanoma): > 4.25 µM
GI50 (786-0 renal): > 4.25 µM
TGI (786-0 renal): > 4.25 µM
GI50 (MCF7 breast): 215 nM
TGI (MCF7 breast): > 4.25 µM
GI50 (SF-539 CNS): 1530 nM
TGI (SF-539 CNS): > 4.25 µM
GI50 (ACHN renal): > 4.25 µM
TGI (ACHN renal): > 4.25 µM
GI50 (UACC-257 melanoma): 1210 nM
TGI (UACC-257 melanoma): > 4.25 µM
GI50 (OVCAR-4 ovarian): 1570 nM
TGI (OVCAR-4 ovarian): > 4.25 µM
GI50 (A549 NSCLC): 2390 nM
TGI (A549 NSCLC): > 4.25 µM
GI50 (NCI-H460 lung): 1520 nM
TGI (NCI-H460 lung): > 4.25 µM
GI50 (KM12 colon): 1470 nM
TGI (KM12 colon): > 4.25 µM
GI50 (NCI-H23 lung): 1000 nM
TGI (NCI-H23 lung): > 4.25 µM
GI50 (RPMI-8226 leukemia): 265 nM
TGI (RPMI-8226 leukemia): 2410 nM
GI50 (TK-10 renal): > 4.25 µM
TGI (TK-10 renal): > 4.25 µM
GI50 (OVCAR-3 ovarian): 1140 nM
TGI (OVCAR-3 ovarian): > 4.25 µM
GI50 (HL-60(TB) leukemia): 960 nM
TGI (HL-60(TB) leukemia): 2080 nM
GI50 (RXF 393 renal): 964 nM
TGI (RXF 393 renal): 3.11 µM
GI50 (SW-620 colon): 3.34 µM
TGI (SW-620 colon): > 4.25 µM
GI50 (HOP-62 NSCLC): > 4.25 µM
TGI (HOP-62 NSCLC): > 4.25 µM
GI50 (SF-268 CNS): 1630 nM
TGI (SF-268 CNS): > 4.25 µM
GI50 (SNB-19 CNS): 1270 nM
TGI (SNB-19 CNS): > 4.25 µM
GI50 (HCC-2998 colon): 1960 nM
TGI (HCC-2998 colon): > 4.25 µM
GI50 (NCI-H522 lung): 873 nM
TGI (NCI-H522 lung): 4.03 µM
GI50 (COLO 205 colon): 1290 nM
TGI (COLO 205 colon): > 4.25 µM
GI50 (MDA-MB-435): 1160 nM
TGI (MDA-MB-435): > 4.25 µM
GI50 (M14 melanoma): > 4.25 µM
TGI (M14 melanoma): > 4.25 µM
GI50 (HCT-116 colon): 1750 nM
TGI (HCT-116 colon): > 4.25 µM
GI50 (SN12C renal): 789 nM
TGI (SN12C renal): > 4.25 µM
GI50 (MOLT-4 leukemia): 1470 nM
TGI (MOLT-4 leukemia): > 4.25 µM
GI50 (HS 578T breast): 2480 nM
TGI (HS 578T breast): > 4.25 µM
GI50 (SF-295 CNS): > 4.25 µM
TGI (SF-295 CNS): > 4.25 µM
GI50 (PC-3 prostate): 1660 nM
TGI (PC-3 prostate): > 4.25 µM
GI50 (IGROV1 ovarian): 2510 nM
TGI (IGROV1 ovarian): > 4.25 µM
GI50 (MDA-MB-231 breast): 1430 nM
TGI (MDA-MB-231 breast): > 4.25 µM
GI50 (HT29 colon): 1720 nM
TGI (HT29 colon): > 4.25 µM
GI50 (U251 CNS): 1610 nM
TGI (U251 CNS): > 4.25 µM
GI50 (HCT-15 colon): > 4.25 µM
TGI (HCT-15 colon): > 4.25 µM
GI50 (SK-OV-3 ovarian): 1550 nM
TGI (SK-OV-3 ovarian): > 4.25 µM
GI50 (OVCAR-5 ovarian): 1640 nM
TGI (OVCAR-5 ovarian): > 4.25 µM
GI50 (SR leukemia): 1410 nM
TGI (SR leukemia): > 4.25 µM
GI50 (SK-MEL-2 melanoma): 1370 nM
TGI (SK-MEL-2 melanoma): > 4.25 µM
GI50 (NCI-H226 lung): > 4.25 µM
TGI (NCI-H226 lung): > 4.25 µM
GI50 (BT-549 breast): 966 nM
TGI (BT-549 breast): 2670 nM
GI50 (SNB-75 CNS): 1150 nM
TGI (SNB-75 CNS): > 4.25 µM
GI50 (A498 renal): > 4.25 µM
TGI (A498 renal): > 4.25 µM
